18 compounds from patent publication US20030194378A1, “Novel aerosol formulation containing a polar fluorinated molecule” (priority 2000, published 2003) can be followed below.

Data set [1] can be described thus: Solubility of selected excipients in 4HPFOH. The conditions noted are these: for Concentration % w/w (at which solubility in 4HPFOH was assessed): excipient in 4HPFOH; for Solubility or miscibility in 4HPFOH: excipient in 4HPFOH at the concentration of the same line, sonicated, heated, cooled.
Protocol: The second test carried out was to evaluate the solubility (or miscibility in the case of liquid samples) of some excipients in 4HPFOH.
The excipients were weighed in glass vials with a screw-on plastic cap. 4HPFOH was added at the required concentration, and the vial sealed with Teflon tape and the screw-on cap. The sample was sonicated and heated to quicken the solubilisation of the excipient. The vial was then allowed to cool down.
Data set [2] in a line: Miscibility or solubility of fluorinated molecules in propellants. The following applies: for Concentration (C, in brackets) at which the miscibility or solubility test was done, HFA-134a / Concentration (C, in brackets) at which the miscibility or solubility test was done, HFA-227: solutions below this are monophasic, not an upper limit; for Miscibility or solubility, HFA-134a: in propellant HFA-134a, at the concentration in brackets; for Miscibility or solubility, HFA-227: in propellant HFA-227, at the concentration in brackets.
Description: The fluorinated chemical was weighed in a clear PET vial. The vial was then crimped, and subsequently pressure filled with one of the propellants until the desired total weight was reached.
Solutions at concentrations below these limits are therefore monophasic. The concentrations quoted are not upper limits.

Data set [3] in a line: Solubility of drug compounds in 4HPFOH (optical, UV-Vis). The format is physicochemical. As to the method:
Although most drug compounds are insoluble in the fluorinated systems, in some instances it is possible to solubilise the drug.
Drug suspensions were prepared in sealed glass vials by weight. The suspensions were then allowed to rest over a couple of day to reach equilibrium. They were firstly assessed optically, and in the case of a possible solubility by UV-vis spectroscopy. The solutions were then filtered with 0.2 μm PTFE filters and studied by UV-Vis spectroscopy between 280 nm and 350 nm. A range of suspensions were prepared, to be able to reach saturation levels. Calibration curves were then drawn by plotting the absorbance as a function of concentration. The inflexion point at which the slope of the calibration plot changed was taken as the solubility limit. The experiment was carried out at least 3 times for each drug.

Structures are written as SMILES. Structures can show the parent of a compound that is named as a salt. Where two headings read alike, the source gives them in different places. Some results are limits rather than exact numbers.

Consider `C[C@H](CCC(=O)O)[C@H]1CC[C@H]2[C@@H]3CC[C@@H]4C[C@H](O)CC[C@]4(C)[C@H]3C[C@H](O)[C@]12C` [Deoxycholic acid], for which, in data set [1], the “Concentration % w/w (at which solubility in 4HPFOH was assessed)” value (“Concentration % w/w” for short) turned out to be 0.90 % w/w and the “Solubility or miscibility in 4HPFOH” value is listed as “Yes”.

Turning to `CCCCCCCCO[C@@H]1O[C@H](CO)[C@@H](O)[C@H](O)[C@H]1O` [N Octyl beta D Glucopyranoside], in data set [1], the “Concentration % w/w” value is 0.11 % w/w and the “Solubility or miscibility in 4HPFOH” value was “Yes”.

As for `OCC(F)(F)C(F)(F)C(F)(F)C(F)(F)C(F)(F)C(F)(F)C(F)(F)C(F)(F)F` [1H,1H, Perfluorononan-1-ol], in data set [2], the “Concentration (C, in brackets) at which the miscibility or solubility test was done, HFA-134a” value (from here on “Concentration (C, in brackets) … HFA-134a”) is on record as “(C <4.55% w/w)”; the “Concentration (C, in brackets) at which the miscibility or solubility test was done, HFA-227” value (“Concentration (C, in brackets) … HFA-227” below) is listed as under 4.15 % w/w; the “Miscibility or solubility, HFA-134a” value is given as “Yes”; the “Miscibility or solubility, HFA-227” value is recorded as “Yes”.

With `FC(OC(F)(F)C(F)(OC(F)(F)C(F)(OC(F)(F)C(F)(OC(F)(F)C(F)(F)C(F)(F)F)C(F)(F)F)C(F)(F)F)C(F)(F)F)C(F)(F)F` (centres unmarked) [2H Perfluoro-5,8,11-trimethyl-3,6,9,12-tetrafluoropropylether], in data set [2], the “Concentration (C, in brackets) … HFA-134a” value is “(C <43.49% w/w)”; the “Concentration (C, in brackets) … HFA-227” value was “(C <35.36% w/w)”; the “Miscibility or solubility, HFA-134a” value was “Yes”; the “Miscibility or solubility, HFA-227” value is listed as “Yes”.

`O=C(OC(=O)C(F)(F)C(F)(F)C(F)(F)C(F)(F)C(F)(F)C(F)(F)F)C(F)(F)C(F)(F)C(F)(F)C(F)(F)C(F)(F)C(F)(F)F` [Perfluoroheptanoic anhydride]: in data set [2], the “Concentration (C, in brackets) … HFA-134a” value is listed as “(C <9.89% w/w)”; the “Concentration (C, in brackets) … HFA-227” value was under 9.13 % w/w; the “Miscibility or solubility, HFA-134a” value is given as “Yes”; the “Miscibility or solubility, HFA-227” value was “Yes”.

With `OCCC(F)(F)C(F)(F)C(F)(F)C(F)(F)C(F)(F)C(F)(F)F` [1H,1H,2H,2H Perfluorooctan-1-ol], in data set [2], the “Concentration (C, in brackets) … HFA-134a” value was “(C <7.30% w/w)”; the “Concentration (C, in brackets) … HFA-227” value is listed as under 5.17 % w/w; the “Miscibility or solubility, HFA-134a” value is listed as “Yes”; the “Miscibility or solubility, HFA-227” value was “Yes”.

With `CCCCCCCCCCCC[N+](C)(C)C.[Br-]` [Dodecyltrimethyl Ammonium Bromide], in data set [1], the “Concentration % w/w” value amounted to 1.00 % w/w and the “Solubility or miscibility in 4HPFOH” value is on record as “Yes”.

As for `COC(=O)C(F)(OC(F)(F)C(F)(OC(F)(F)C(F)(OC(F)(F)C(F)(OC(F)(F)C(F)(F)C(F)(F)F)C(F)(F)F)C(F)(F)F)C(F)(F)F)C(F)(F)F` (centres unmarked) [Methyl perfluoro 2,5,9,11-Tetramethyl 3,6,9,12 Tetraoxapentadecanoate], in data set [2], the “Concentration (C, in brackets) … HFA-134a” value is recorded as “(C <10.37% w/w)”; the “Concentration (C, in brackets) … HFA-227” value is given as under 8.90 % w/w; the “Miscibility or solubility, HFA-134a” value was “Yes”; the “Miscibility or solubility, HFA-227” value is recorded as “Yes”.

For `CCOC(=O)C(F)(F)C(F)(F)C(F)(F)C(F)(F)C(F)(F)C(F)(F)C(F)(F)C(F)(F)C(F)(F)C(F)(F)C(F)(F)F` [Ethyl Perfluoro n-Dodecanoate], in data set [2], the “Concentration (C, in brackets) … HFA-134a” value is on record as “(C <9.24% w/w)”; the “Concentration (C, in brackets) … HFA-227” value is listed as “(C <41.15% w/w)”; the “Miscibility or solubility, HFA-134a” value is “Yes”; the “Miscibility or solubility, HFA-227” value is reported as “Yes”.

Take `CCOC(=O)C(F)(F)C(F)(F)C(F)(F)C(F)(F)C(F)(F)C(F)(F)C(F)(F)C(F)(F)C(F)(F)C(F)F` [Ethyl 11H-Perfluoroundecanoate]: in data set [2], the “Concentration (C, in brackets) … HFA-134a” value is “(C <4.93% w/w)”; the “Concentration (C, in brackets) … HFA-227” value is under 4.43 % w/w; the “Miscibility or solubility, HFA-134a” value is given as “Yes”; the “Miscibility or solubility, HFA-227” value is “Yes”.

As to `CCCCCCCCC[N+](C)(C)C.[Br-]` [Nonyltrimethyl Ammonium Bromide], in data set [1], the “Concentration % w/w” value worked out at 0.96 % w/w and the “Solubility or miscibility in 4HPFOH” value was “Yes”.

Take `CCCCC(CC)COC(=O)CC(C(=O)OCC(CC)CCCC)S(=O)(=O)[O-].[Na+]` (centres unmarked) [Dioctyl-sulfosuccinate sodium salt]: in data set [1], the “Concentration % w/w” value was 0.096 % w/w and the “Solubility or miscibility in 4HPFOH” value is reported as “Yes”.

In the case of `COC(=O)C(F)(F)C(F)(F)C(F)(F)C(F)(F)C(F)(F)C(F)(F)C(F)(F)C(F)(F)C(F)(F)F` [Methyl Perfluorodecanoate], in data set [2], the “Concentration (C, in brackets) … HFA-134a” value is “(C <42.63% w/w)”; the “Concentration (C, in brackets) … HFA-227” value was “(C <39.40% w/w)”; the “Miscibility or solubility, HFA-134a” value is “Yes”; the “Miscibility or solubility, HFA-227” value is recorded as “Yes”.

As for `Cc1ccc(CCOCCNS(=O)(=O)CCCNCCc2ccc(O)c3nc(O)sc23)cc1` [3-[2-(4-hydroxy-2-oxo-3H-1,3-benzothiazol-7-yl)ethylamino]-N-[2-[2-(4-methylphenyl)ethoxy)ethyl]propansulphonamide], in data set [3], the “Solubility in 4HPFOH” value is given as “less than 0.1 ppm(w/w)” and the “Solubility in 4HPFOH (in words)” value was “insoluble”.

Turning to `OCC(O)CC(F)(F)C(F)(F)C(F)(F)C(F)(F)C(F)(F)C(F)(F)F` (centres unmarked) [1H,1H,2H,3H,3H Perfluoro-1,2-nonandiol], in data set [2], the “Concentration (C, in brackets) … HFA-134a” value is on record as “(C <4.84% w/w)”; the “Concentration (C, in brackets) … HFA-227” value is reported as under 3.71 % w/w; the “Miscibility or solubility, HFA-134a” value is “Yes”; the “Miscibility or solubility, HFA-227” value was “Yes”.

Consider `CC(C)(C)NCC(O)c1cc(O)cc(O)c1` (centres unmarked) [Terbutaline Sulphate], for which, in data set [3], the “Solubility in 4HPFOH” value is listed as “less than 0.1 ppm(w/w)” and the “Solubility in 4HPFOH (in words)” value is recorded as “insoluble”.

Turning to `CCCC1O[C@@H]2C[C@H]3[C@@H]4CCC5=CC(=O)C=C[C@]5(C)[C@H]4[C@@H](O)C[C@]3(C)[C@]2(C(=O)CO)O1` (some centres unmarked) [Budesonide], in data set [3], the “Solubility in 4HPFOH (in words)” value is “soluble” and the “Solubility limit in 4HPFOH” value is listed as 0.219-0.246 % w/w.

`COc1ccc(CC(C)NCC(O)c2ccc(O)c(NC=O)c2)cc1` (centres unmarked) [Formoterol Fumarate Dihydrate]: in data set [3] (in 4HPFOH, equilibrated a couple of days), the “Solubility in 4HPFOH (in words)” value is “insoluble”.
